Reference: patent US8778966B2, “Quinolinone derivatives as PARP and tank inhibitors” (Janssen Pharmaceutica, NV, priority 2007, dated 2014)

Tests used:
PC3 cells = test: EB1 Comet (microtubule disruption) assay; format: cell-based, human; conditions: 1 hour treatment; for minimal effective concentration: Homo sapiens, PC-3, 1 h, read-out: EB1 pLAC (converted)
Summary of the method: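 PC3 human prostate cancer cells exposed to compound for 1 h at 37 °C (0.6% DMSO final), methanol-fixed, immunostained for Eb1 and imaged at 20×. Value is the lowest active concentration (LAC): the concentration at which Eb1 foci are absent in at least 50% of treated cells.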

PC-3 cells = test: Antiproliferative activity, Alamar Blue assay, PC-3 cells; format: cell-based, human; conditions: for IC50: Homo sapiens, PC-3, PC3 cells, read-out: PC3 antiproliferative activity pIC50 (converted)
Summary of the method: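 PC-3 cells seeded at 4.5×10^3 cells/ml, left to adhere 24 hr, then exposed to compound for 4 days. Resazurin (Alamar Blue) added for a further 24 hrs at 37° C; fluorescence read at 540/590 nm. Viability as % of untreated control, mean of 3 wells; IC50 by probit analysis, reported as pIC50.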

HCT116 cells = test: Antiproliferative activity, Alamar Blue assay, HCT116 cells; format: cell-based, human; parameters: key to HCT116 antiproliferative activity pIC50: pIC50 = -log IC50 (IC50: conc. reducing growth to 50% of control); conditions: for IC50: Homo sapiens, HCT-116, HCT116 cells, read-out: HCT116 antiproliferative activity pIC50 (converted)
Summary of the method: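 HCT116 cells seeded, adhered 24 h, then exposed to compound for 4 days; Alamar Blue (resazurin) added for 4 h at 37 °C, fluorescence read at 540/590 nm. Viability as % of untreated control, triplicate wells; IC50 by probit analysis, reported as pIC50.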

SMILES	melting point [°C]	minimal effective concentration (PC3 cells) [µM]	IC50 (PC-3 cells) [nM]	IC50 (HCT116 cells) [nM]	EB1 pLAC (PC3 cells)	PC3 antiproliferative activity pIC50 (PC-3 cells; PC3 cells)	HCT116 antiproliferative activity pIC50 (HCT116 cells; HCT116 cells)
CCc1cc2ccc(C(C)(C#N)Cc3cccc(N4CCCC4)n3)cc2[nH]c1=O (centres unmarked) [Compound 226]	155	3.16	1580	1260	–	–	–
CCc1cc2ccc(C(C)(C#N)Cc3cccc(C4(N)CC4)c3)cc2[nH]c1=O (centres unmarked) [Compound 180]	> 250	3.16	3160	2000	–	–	–
CCc1cc2ccc(C(C)(C#N)Cc3cccc(-c4ccccc4)c3)cc2[nH]c1=O (centres unmarked) [Compound 18]	192	1	1260	5010	–	–	–
CCc1cc2cc(C)c(C(C)(C#N)Cc3cccc(C#N)n3)cc2[nH]c1=O (centres unmarked) [Compound 208]	> 250	–	10000	6310	–	–	–
CCc1cc2ccc(C(C)(C#N)Cc3cccc(N(C)C)c3)cc2[nH]c1=O (centres unmarked) [Compound 20]	193	0.1	200	200	–	–	–
CCc1cc2ccc(C(C)(C#N)Cc3ccc(OC)nc3Cl)cc2[nH]c1=O (centres unmarked) [Compound 224]	167	0.316	3160	2000	–	–	–
CCc1cc2ccc(C(C)(C#N)Cc3ccc(Cl)nc3Cl)cc2[nH]c1=O (centres unmarked) [Compound 212]	222	–	5010	3160	–	–	–
CCc1cc2ccc(C(C)(C#N)CCCN(C)C(=O)c3ccc(F)cc3)cc2[nH]c1=O (centres unmarked) [Compound 188]	256	1	2510	1000	–	–	–
CCc1cc2ccc(C(C)(C#N)Cc3cc(C)cc(C#N)c3)cc2[nH]c1=O (centres unmarked) [Compound 174]	212	0.1	200	100	–	–	–
CCc1cc2ccc(C(C)(C#N)Cc3cc4ccccc4nn3)cc2[nH]c1=O (centres unmarked) [Compound 238]	250	1	3980	1580	–	–	–
COc1cc2ccc(C(C)(C#N)Cc3cccc(C#N)n3)cc2[nH]c1=O (centres unmarked) [Compound 218]	95	0.316	1260	1260	–	–	–
CCc1cc2ccc(C(C)(C#N)Cc3ccc(Cl)nc3OC)cc2[nH]c1=O (centres unmarked) [Compound 225]	160	1	794	501	–	–	–
CCc1cc2ccc(C(C)(C#N)Cc3cccc(O)c3)cc2[nH]c1=O (centres unmarked) [Compound 22]	217	–	7940	> 10000	–	–	–
CCc1cc2ccc(C(C)(C#N)Cc3cc(OC)cc(OC)n3)cc2[nH]c1=O (centres unmarked) [Compound 232]	65	0.1	251	100	–	–	–
CCc1cc2ccc(C(C)(C#N)Cc3cc(C#N)cc4c3OCC4)cc2[nH]c1=O (centres unmarked) [Compound 236]	250	0.316	501	200	–	–	–
CCc1cc2ccc([C@](C)(C#N)CN(C)Cc3ccc(C#N)cc3)cc2[nH]c1=O [Compound 190]	106	10	10000	10000	–	–	–
CCc1cc2ccc(C(C)(C#N)Cc3cccc(OCCOC)c3)cc2[nH]c1=O (centres unmarked) [Compound 24]	134	1	1000	1000	–	–	–
CCc1cc2ccc(C(C)(C#N)Cc3cccc(OCc4ccccc4)c3)cc2[nH]c1=O (centres unmarked) [Compound 23]	150	10	5010	3160	–	–	–
CCc1cc2ccc(C(C)(C#N)CCOc3ncc(Br)cn3)cc2[nH]c1=O (centres unmarked) [Compound 349]	–	1	1580	631	–	–	–
CCc1cc2ccc(C(C)(C#N)Cc3cccc(S(F)(F)(F)(F)F)c3)cc2[nH]c1=O (centres unmarked) [Compound 177]	124	1	3160	2000	–	–	–
CCc1cc2ccc(C(C)(C#N)Cc3cccc(I)c3)cc2[nH]c1=O (centres unmarked) [Compound 19]	158	0.316	158	50.1	–	–	–
Cc1cc2ccc([C@](C)(C#N)C3CCc4cccnc43)cc2[nH]c1=O (single isomer, unassigned) [Compound 388]	–	> 10	10000	6310	–	–	–
CCc1cc2ccc([C@@](C)(C#N)CN(C)Cc3ccc(C#N)cc3)cc2[nH]c1=O (single isomer, unassigned) [Compound 253]	116	0.1	158	63.1	–	–	–
Cc1cc2ccc([C@](C)(C#N)[C@@H]3CCc4cc(Br)ccc43)cc2[nH]c1=O [Compound 242]	–	0.1	79.4	50.1	–	–	–
CCc1cnc(OCCC(C)(C#N)c2ccc3cc(CC)c(=O)[nH]c3c2)nc1 (centres unmarked) [Compound 222]	–	10	3980	3160	–	–	–
CCc1cc2ccc(C(C)(C#N)Cc3cccc(N4CCOCC4)c3)cc2[nH]c1=O (centres unmarked) [Compound 21]	162	1	2000	1260	–	–	–
Cc1cc2ccc(C(C)(C#N)C3CCc4cc(Br)ccc43)cc2[nH]c1=O (centres unmarked) [Compound 244]	–	–	–	–	7	6.6	6.8
CCc1cc2ccc([C@](C)(C#N)Cc3cc(F)cc(F)c3)cc2[nH]c1=O [Compound 333]	–	10	10000	10000	–	–	–
CCc1cc2ccc(C(C#N)(CC)Cc3cccc(C#N)n3)cc2[nH]c1=O (centres unmarked) [Compound 342]	–	3.16	1260	501	–	–	–
CCc1cc2ccc(C(C)(C#N)Cc3cccc(-c4cnn(C)c4)c3)cc2[nH]c1=O (centres unmarked) [Compound 17]	170	3.16	10000	2510	–	–	–
